# Measurements: patent US8440240B2, “Method for treating ocular demodex” (priority 2005, dated 2013)
# “And” between values parts separate entries of the source, which are not always exact repeats. Equal values may be shown once.
# Key:
# Demodex folliculorum [1] = assay: In vitro killing: survival time of live adult demodex from epilated lashes in test solutions; conditions: for killing effect on Demodex in words (relative to TTO): in vitro; for ST: survival time of demodex: 150 = still alive (no effect)
# Protocol: TT shampoo was from Kato Sales, Inc. (Altamonte Springs, Fla., USA). TTO was diluted with mineral oil into different concentrations.
# Under the microscope, if the epilated lash contained live demodex, different solutions were added to the coverslip edge. The movement of demodex body and legs was continuously observed for 150 minutes. The survival time (ST) (Table 2 below) was counted from the time when the solution was added to the time when the movement ceased (See FIG. 1) The average ST tested for a given solution in a number of mites was used to compare the in vitro killing effect. If demodex remained alive at the end of 150 minutes, this value was denoted as no effect. Because demodex in an earlier life stage was more vulnerable, we only tested adult demodex that had 4 pairs of well developed legs and stumpy body. Because demodex buried in cylindrical dandruff (CD) might preclude the killing effect, we only tested demodex of which the whole body was fully exposed to the test solution.
# Demodex folliculorum [2] = conditions: Norn 1970; cited from earlier work
molecule,measurement,setting,value
C=C(C)[C@H]1CC=C(C)C(=O)C1 [(+)-Carvone],"Killing effect on Demodex (Time in minutes), Average",Demodex folliculorum [1]; 25%,22.7 min
same,"Killing effect on Demodex (Time in minutes), single mite",Demodex folliculorum [1]; 25%,25 min and 20 min and 23 min
same,"Killing effect on Demodex (Time in minutes), Average",Demodex folliculorum [1]; 50%,11.6 min
same,"Killing effect on Demodex (Time in minutes), single mite",Demodex folliculorum [1]; 50%,13 min and 8 min and 10 min and 11 min and 16 min
same,"Killing effect on Demodex (Time in minutes), Average",Demodex folliculorum [1]; 100%,4.2 min
same,"Killing effect on Demodex (Time in minutes), single mite",Demodex folliculorum [1]; 100%,4 min and 5 min and 3 min
same,killing effect on Demodex in words (relative to TTO),Demodex folliculorum [1],as effective as TTO
"C=C(C)[C@H]1CC=C(C)CC1 [(+)-Limonene, (R)-(+)-Limonene]","Killing effect on Demodex (Time in minutes), Average",Demodex folliculorum [1]; 97%,66.8 min
same,killing effect on Demodex in words (relative to TTO),Demodex folliculorum [1],not as effective as TTO
"CCO [Alc, alcohol, reference compound]",ST: survival time of demodex,Demodex folliculorum [1]; 75% solution,150 min
same,ST: survival time of demodex,"Demodex folliculorum [1]; 100% solution, adult mites, observed 150 min, mean±S.D.",3.9 ± 1.2 min
same,time to kill demodex,Demodex folliculorum [2],within several minutes
CC12CCC(CC1)C(C)(C)O2 [Eucalyptol],"Killing effect on Demodex (Time in minutes), Average",Demodex folliculorum [1]; concentration not given,36.8 min
same,"Killing effect on Demodex (Time in minutes), single mite",Demodex folliculorum [1]; concentration not given,30 min and 35 min and 40 min and 42 min
same,killing effect on Demodex in words (relative to TTO),Demodex folliculorum [1],not as effective as TTO
"CC[C@@H]1C(=O)OC[C@@H]1Cc1cncn1C [Pilo, pilocarpine, reference compound]","Killing effect on Demodex (Time in minutes), Average","Demodex folliculorum [1]; 2%, 150 = no effect",150 min
same,"Killing effect on Demodex (Time in minutes), single mite","Demodex folliculorum [1]; 2%, 150 = no effect",150 min
same,ST: survival time of demodex,Demodex folliculorum [1]; 4% solution,150 min
same,ST: survival time of demodex,"Demodex folliculorum [1]; 4% solution, listed as Pilocarpine",> 150 min
same,"Killing effect on Demodex (Time in minutes), Average","Demodex folliculorum [1]; 4%, 150 = no effect",150 min
same,"Killing effect on Demodex (Time in minutes), single mite","Demodex folliculorum [1]; 4%, 150 = no effect",150 min
CC1=CCC(O)(C(C)C)CC1 (centres unmarked) [Terpinen-4-ol],killing effect on Demodex in words (relative to TTO),Demodex folliculorum [1],active ingredient
c1ccccc1 [benzene],time to kill demodex,Demodex folliculorum [2],within several minutes
CCOCC [ether],time to kill demodex,Demodex folliculorum [2],within several minutes
"povidone iodine [PI, reference compound]",ST: survival time of demodex,"Demodex folliculorum [1]; 10% solution, observed 150 min",150 min
xylol,time to kill demodex,Demodex folliculorum [2],within several minutes
